These results are taken from ChEMBL document CHEMBL1201862, “PubChem BioAssay data set” (2004).

Each structure is given as a SMILES string. Where “and” joins values, the source holds several entries; their conditions need not be identical. Identical values can stand only once.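 Protocol summary: plate cells (96-well), add compound at 5 concentrations, incubate 48 h, interpolate endpoints linearly. GI50: concentration for 50% inhibition of growth.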 Calls of active or inactive are those of the source. No stated cut-off is given here; in the data, active = GI50 up to about 1.1 µM and inactive = higher.

Common to all, as to assay: NCI anticancer screen, dose series, 48 h
Assay [1] deals with HCC 2998.
The subject of assay [2] is NCI-H522.
Assay [3] deals with NCI-H226.
The subject of assay [4] is BT-549.
Assay [5] deals with HOP-92.
Assay [6] has as its system RXF 393.
Assay [7] deals with SK-MEL-5.
Assay [8] concerns HCT-116.
Assay [9] relates to NCI/ADR-RES.
For assay [10], the system named is SK-MEL-2.
The test system of assay [11] is EKVX.
In assay [12] the test system is CCRF-CEM.
Assay [13] has as its system CAKI-1.
Assay [14] concerns ACHN.
Assay [15] concerns UACC-257.
The subject of assay [16] is NCI-H460.
The test system of assay [17] is OVCAR-5.
The subject of assay [18] is MDA-MB-435.
The test system of assay [19] is T47D.

With `CC(=O)c1c(-c2cccc3ccccc23)c(C#N)c(=S)n(C2OC(CO)C(O)C(O)C2O)c1C` (stereo unspecified), the GI50 in assay [1] was > 100 µM (inactive); in assay [2], > 100 µM (inactive); in assay [3] it was > 100 µM (inactive); in assay [4], > 100 µM (inactive); in [5], 56.8 µM (inactive); in assay [6], 83.6 µM (inactive). In addition, the GI50 in assay [7] was > 100 µM (inactive); in assay [8] it was > 100 µM (inactive); in assay [9], 62.2 µM (inactive); in [10], > 100 µM (inactive); in assay [11], 11.1 µM (inactive); in assay [12], 56 µM (inactive) and 51.4 µM (inactive). In addition, the GI50 in assay [13] was 53.1 µM (inactive); in assay [14], > 100 µM (inactive); in assay [15], 69 µM (inactive); in [16] it was > 100 µM (inactive); in assay [17], > 100 µM (inactive).

In the case of `COC(=O)c1s/c(=N\C(=S)N(C)C)n(-c2ccc(Cl)cc2)c1C(=O)OC`, the GI50 was > 100 µM (inactive) in [1]; 49 µM (inactive) in assay [2]; > 100 µM (inactive) in assay [3]; 78.9 µM (inactive) in assay [6]; > 10 µM (inactive) in assay [7]; > 100 µM (inactive) in assay [8]. Moreover, the GI50 in assay [10] is > 100 µM (inactive); in [11], > 100 µM (inactive); in assay [12] it was > 100 µM (inactive); in [13], 59.2 µM (inactive); in assay [14], > 100 µM (inactive); in assay [15] it was > 100 µM (inactive). Further, the GI50 in [16] was 71.8 µM (inactive); in assay [17], > 100 µM (inactive).

As for `c1cc2nnnn2nc1N1CCCC1`, the GI50 in [1], in assay [18], in assay [3], in [5], in assay [6] and in assay [7] was > 100 µM (inactive) in each case. The GI50 in [8], in assay [9], in assay [10], in [12], in assay [13] and in [14] was > 100 µM (inactive) throughout. The GI50 in assay [15], in assay [16] and in assay [17] was > 100 µM (inactive) throughout.

Consider `CCOc1cc(NC(C)=O)ccc1C(=O)NN1C(=O)/C(=C/c2cc(OC)c(OC)c(OC)c2)N=C1c1ccccc1`, for which the GI50 in assay [1] was > 100 µM (inactive); in assay [18] it was > 100 µM (inactive); in assay [2], 28.3 µM (inactive); in [3], > 100 µM (inactive); in [4], 16.3 µM (inactive); in [5], 23 µM (inactive). Moreover, the GI50 in [7] is 65.8 µM (inactive); in assay [8] it was > 100 µM (inactive); in assay [9] it was > 100 µM (inactive); in [11], > 100 µM (inactive); in [12], > 100 µM (inactive); in assay [13], > 100 µM (inactive). Moreover, the GI50 in assay [14] was > 100 µM (inactive); in assay [15], > 100 µM (inactive); in [16], 91.6 µM (inactive); in assay [17], > 100 µM (inactive).

Take `Cc1ccc2nc(SCC(=O)N/N=C3\C(=O)Nc4ccccc43)n(-c3ccccc3)c(=O)c2c1`: the GI50 in assay [1] was 14.8 µM (inactive); in [18], 16.5 µM (inactive); in assay [3], 16.2 µM (inactive); in assay [5], 14.3 µM (inactive); in assay [6] it was 14.1 µM (inactive); in assay [7], 15.7 µM (inactive). For the same compound, the GI50 is 15.1 µM (inactive) in [8]; 13.3 µM (inactive) in [9]; 1.69 µM (inactive) in assay [10]; 15.6 µM (inactive) in [11]; 18.4 µM (inactive) in [12]; 18.6 µM (inactive) in [13]. In addition, the GI50 in assay [14] is 13.8 µM (inactive); in [15] it was 24 µM (inactive); in assay [19], 15.5 µM (inactive); in [16], 15.6 µM (inactive); in [17], 15.8 µM (inactive).

Turning to `CC1=C2O[B-](c3ccccc3)(c3ccccc3)[O+]=C2C=CN1`, the GI50 in assay [5] is 22.1 µM (inactive); in assay [6] it was 26.4 µM (inactive); in assay [7], 21.5 µM (inactive); in [8], 42.6 µM (inactive); in [11] it was 28.8 µM (inactive); in assay [12], 34.8 µM (inactive). The GI50 in assay [13] was 21.8 µM (inactive); in [14], 27.9 µM (inactive); in [15] it was 27.7 µM (inactive); in assay [16] it was 49.9 µM (inactive).

In the case of `CNC(=O)OC(COC)CN1CCN(c2ccccc2C)CC1` (stereo unspecified), the GI50 in assay [1], in [18], in assay [2], in [3], in [5] and in assay [6] was > 10 µM (inactive) each time. Further, the GI50 in assay [7], in [8], in assay [9], in assay [10], in assay [11] and in assay [12] was > 10 µM (inactive) in each case. Besides, the GI50 in [13], in assay [14], in assay [15], in assay [19] and in [16] was > 10 µM (inactive) in each case.

In the case of `ClCCCN(CCCCl)c1ccc(/C=N/c2cccc(Cl)c2)cc1`, the GI50 in assay [1] was 32.1 µM (inactive); in assay [18], 28.8 µM (inactive); in assay [2], 30.5 µM (inactive); in assay [3], 2.03 µM (inactive); in [5] it was 29.2 µM (inactive); in [6] it was 14.2 µM (inactive). Besides, the GI50 in assay [8] was 32.5 µM (inactive); in [9], 11.2 µM (inactive); in [10], 26.7 µM (inactive); in assay [11], 0.637 µM (active); in assay [12] it was 16.4 µM (inactive); in assay [13] it was 0.652 µM (active). The GI50 was 7.26 µM (inactive) in [14]; 29.4 µM (inactive) in assay [15]; 7.11 µM (inactive) in assay [19]; 9.55 µM (inactive) in [16]; 22.1 µM (inactive) in assay [17].

On to `CN(C)CCNC(=O)c1cccc2c(NCC(=O)O)c3ccccc3nc12`, for which the GI50 in assay [18] was 11.4 µM (inactive); in assay [2], 10.6 µM (inactive); in assay [3] it was 4.82 µM (inactive); in assay [5], 8.04 µM (inactive); in assay [7], 10.6 µM (inactive); in [8] it was 4.67 µM (inactive). Besides, the GI50 is 11.9 µM (inactive) in [9]; 16.7 µM (inactive) in assay [10]; 10.6 µM (inactive) in assay [11]; 36 µM (inactive) in assay [12]; 5.82 µM (inactive) in assay [14]; 13.5 µM (inactive) in assay [17].

In the case of `COC(=O)C1Cc2c(OC)ccc(OC)c2C(O)C1C(=O)OC` (stereo unspecified), the GI50 in assay [18], in assay [2], in [3], in [5], in [6] and in [7] was > 100 µM (inactive) in each case. The GI50 in [8], in assay [9], in [10], in [11], in assay [12] and in [13] was > 100 µM (inactive) in each case. Also, the GI50 in [14], in [15], in [19], in assay [16] and in assay [17] was > 100 µM (inactive) each time.

As to `Cc1cc(S(=O)(=O)[N-]/C(=N/S(=O)(=O)c2ccc(Cl)cc2)[n+]2ccc(N(C)C)cc2)c(S)cc1Cl`, the GI50 in [1] is > 100 µM (inactive); in [18] it was > 100 µM (inactive); in [2] it was 28.7 µM (inactive); in assay [3], 33.8 µM (inactive); in assay [6], 84.1 µM (inactive); in assay [7], > 100 µM (inactive). Besides, the GI50 in assay [8] is 20.5 µM (inactive); in assay [9], > 100 µM (inactive); in assay [10] it was > 100 µM (inactive); in [11], > 100 µM (inactive); in assay [12] it was 46.2 µM (inactive); in assay [13] it was > 100 µM (inactive). Besides, the GI50 is > 100 µM (inactive) in assay [14]; > 100 µM (inactive) in assay [15]; > 100 µM (inactive) in [19]; 48.3 µM (inactive) in assay [16]; 61.5 µM (inactive) in assay [17].

On to `COc1cc([N+](=O)[O-])c(S(=O)(=O)O)cc1-n1nc(-c2ccccc2)n[n+]1-c1cc(S(=O)(=O)[O-])c([N+](=O)[O-])cc1OC`, for which the GI50 in assay [1], in assay [18], in [2], in assay [3], in assay [6] and in assay [7] was > 100 µM (inactive) in each case. For the same compound, the GI50 in [8], in assay [9], in assay [10], in [11], in [12] and in [13] was > 100 µM (inactive) in each case. In addition, the GI50 in [14], in assay [15], in assay [19], in assay [16] and in assay [17] was > 100 µM (inactive) in each case.
